One data set relates to P2RX3 gene. The data set is described as follows: Gene expression analysis (qRT-PCR) of P2RX3 in cyclophosphamide-treated RT4 cells. It counts as cell-based, Human. Particulars: 100 μM CYP + 10 μM compound, 4 h incubation, compared to CYP control. The procedure:
Study Design: With objective of evaluating effect of text compounds on the pain related markers we have utilized human urothelial “RT4 (Human Urinary bladder carcinoma cells)” cells, treated with test compounds in combination with cyclophosphamide (CYP) and performed gene expression analysis of pain related gene. For gene expression study, 0.5×10^6 cells were treated with cyclophosphamide and test compounds. Cells were incubated for 4 h at 37° C. Experimental Groups: Groups 1: Untreated cells, Group 2: CYP treated (100 μM CYP), Group 3: CYP+Compound IX (100 μM CYP+10 μM Compound IX).
At the end of 4 hr incubation, medium was removed from all wells and cells were washed once with sterile PBS. RNA isolation was performed as per the manufacturer's instruction utilizing Qiagen RNA mini kit (Cat #74104). Followed by cDNA synthesis using 3 μg of total RNA each sample utilizing Superscript III First strand cDNA synthesis system (Thermo fisher, Cat No 18080051). qRT-PCR was performed using the SYBR green master mix (PCR Biosystems, Cat No:—PB20.14) and primers specific for P2RX3 gene. Upon the completion of PCR, the data was analysed using the CFX manager software. The Fold change of the expression was calculated using the following formula: 2^−ddCT=2^−((CT target −CT internal control)
For orientation: In qPCR the cycle at which signal appears reflects the starting amount.

A short description of data set [1]: Pharmacokinetic data in rat after single oral administration. Format: in vivo. Particulars: analyte = the administered compound itself, single oral dose (No. 12 31.2, No. 43 32.8, No. 446 34.8, No. 449 25, XIII 21.2, No. 54 27 mg/kg), fasted female Sprague Dawley rat. The procedure:
The objective of the study was to evaluate pharmacokinetic exposure of Compound XI along with Compound No. 12/Compound No. 43/Compound No. 446/Compound No. 449/Compound XIII/Compound No. 54 after per oral dosing at 31.2 mg/kg of Compound No. 12, 32.8 mg/kg of Compound No. 43, 34.8 mg/kg of Compound No. 446, 25 mg/kg of Compound No. 449, 21.2 mg/kg of Compound XIII and 27 mg/kg of Compound No. 54 in female Sprague Dawley rat. This study was performed in overnight fasted female Sprague Dawley rat. Dose formulation was prepared freshly on the day of dosing. 0.1% tween-80+99.9% of 0.5% CMC was used as vehicle for the preparation of dose formulation.
Blood samples were collected through retro orbital plexus puncture at pre-dose, 0.25, 0.5, 1, 2, 4, 8, 12 and 24 h post-dose. At each time point, blood was withdrawn and transferred into a pre-labeled of micro centrifuge tubes containing anti-coagulant. Tube was mixed gently by inverting the tube to facilitate mixing of anticoagulant with the blood. All blood/plasma samples were analysed using fit-for purpose LC-MS/MS method.
The pharmacokinetic parameters were calculated using standard non-compartmental analysis (Phoenix® software, version 8.3, Pharsight Corporation, Mountain View, California 94040/USA) using linear trapezoidal method with linear interpolation.

For orientation: AUC(0-t) means exposure summed from dosing to a finite time, without extrapolation to infinity. Higher therefore signals high exposure. As usually defined, the Tmax is the time from dosing to the highest level. One may read the Cmax as the maximum level reached in the sampled fluid or tissue.

In the case of `Nc1nc(N)c(/N=N/c2ccccc2)cc1O` [Compound IX], the “P2RX3 gene expression (fold change)” value in the data set on P2RX3 gene is on record as “reduction in P2RX3 gene expression”.

On to `NCC(=O)Nc1ccc(/N=N/c2ccccc2OC(=O)N2CCOCC2)c(N)n1` [Compound No. 446], for which the “AUC% Extrap—obs” value in data set [1] is listed as 11.73%. In addition, in data set [1] (in vivo), the area under the curve AUC(0-t) was 151 ng·h/mL and the Tmax was 15 min. Besides, the Cmax in data set [1] (in vivo, arithmetic mean) was 145 ng/mL. For the same molecule, the AUC(0-inf) in data set [1] (in vivo, read-out: AUCinf—obs) was found to be 170 ng·h/mL.

These data come from patent US20240209010A1, “PRODRUGS OF AZO COMPOUNDS AND THEIR SALTS” (KASHIV BIOSCIENCES, LLC, priority 2021, published 2024).
